According to patent US10954287B2, “Ras binding peptides and methods of use” (Ra Pharmaceuticals, Inc., priority 2016, dated 2021):
Where two headings read alike, the source gives them in different places.

Key:
[1] = tested on: GMPPNP-loaded H-Ras or GTP-loaded K-Ras; test: Fluorescence polarization competition assay with TAMRA-labeled probe R4007; type: binding, human; conditions: 120 nM Ras
Procedure, shortened: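 120 nM GMPPNP-loaded H-Ras or GTP-loaded K-Ras was preincubated with 30 nM TAMRA-labeled R4007 probe for 20 min at room temperature in Tris pH 7.5 buffer with MgCl2, EDTA and Triton X-100. Serially diluted competitor was then added for 60 min. Polarization was read at 535/595 nm, with Ki from a one-site Ki fit and IC50 from probe displacement.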

[2] = target: T1, K-Ras G12D (Homo sapiens, UniProt P01116, G12D); test: Surface plasmon resonance (SPR) binding to immobilized K-Ras; conditions: for Kd / kd / kon: 25° C.; for kon: read-out: ka
T1 construct: For K-Ras, the construct was full-length; made in house
Description: Surface Plasmon Resonance (SPR) experiments were conducted at 25° C. using the ProteOn XPR36 system from BioRad Laboratories, Inc (Hercules, Calif.). […] Kinetic characterization of cyclomimetic binding was performed to determine kon, koff, and Kd. […] was co-injected with RAF-RBD to evaluate competitive binding. Data analysis was performed using BioRad ProteOn Manager software.

[3] = Compound stability in mouse plasma; type: in vitro ADME; conditions: serum (method text and assay name say plasma), 37° C., pH 7.4
Description: Compounds were assayed for stability in mouse and rat plasma under the following conditions. Plasma was adjusted to pH 7.4. DMSO stocks at 10 mM concentration were prepared for the test compounds. Aliquots of the DMSO solutions were dosed into 1 mL of plasma, which had been pre-warmed to 37° C., at a final test compound concentration of 10 μM. The vials were kept in a benchtop Thermomixer® (Eppendorf, Hauppauge, N.Y.) for the duration of the experiment. Aliquots (100 μL) were taken at each timepoint and added to a 96-well plate that had been pre-filled with 300 μL of an acetonitrile solution containing mixture of the internal standards (metoprolol, propranalol and warfarin each at 500 ng/mL). Samples were stored at 4° C. until the end of the experiment. After the final timepoint was sampled, the plate was mixed and then centrifuged at 3,000 rpm for 10 minutes. Aliquots of the supernatant were removed and analyzed by LC-HRAMS.

Structure (SMILES): CCC[C@H](NC(C)=O)C(=O)N[C@H]1CSCc2cccc(c2)CSC[C@@H](C(N)=O)NC(=O)CN(C)C(=O)[C@H](Cc2ccc(F)cc2)N(C)C(=O)[C@H](Cc2ccc(O)cc2)NC(=O)[C@H](Cc2c[nH]c3ncccc23)NC(=O)[C@H](c2ccccc2)NC(=O)[C@H](C)N(C)C(=O)[C@H](Cc2cnc[nH]2)NC(=O)[C@H](CCCCN)NC(=O)[C@H](C(C)(C)C)NC(=O)[C@H](Cc2ccc(O)cc2)NC1=O (relative stereo) [Compound R4000, ACE-NVA-CYS*-TYR-TBG-LYS-HIS-NMA-PHG-7AW-TYR-MFF-SAR-CYS*-NH2]
- IC50 ([1]; 30 nM R4007, FIG. 7B, read-out: half-maximal inhibitory concentration (IC50) for displacement of R4007): 20 nM
- IC50 ([1]; 30 nM probe R4007, 60 minutes at room temperature, read-out: Probe displacement (nM IC50)): 28.6 nM
- Kd ([2]; K-Ras G12D loaded with GDP): 4.4 nM
- kd ([2]; K-Ras G12D loaded with GDP): 0.003 s⁻¹
- kon ([2]; K-Ras G12D loaded with GDP): 680000 M⁻¹ s⁻¹
- Kd ([2]; K-Ras G12D loaded with GMPPNP): 2.8 nM
- kd ([2]; K-Ras G12D loaded with GMPPNP): 0.0016 s⁻¹
- kon ([2]; K-Ras G12D loaded with GMPPNP): 570000 M⁻¹ s⁻¹
- competitive binding on co-injection with RAF-RBD ([2]; R4000 co-injected with RAF-RBD, FIG. 7A): additive signals
- half-life at 10 μM [3]: 5 h
